One assay has as its target H3 (h) (Homo sapiens, UniProt Q9Y5N1). In words: H3 (h) (agonist radioligand). As to conditions: read-out: Inhibition H3 (h) (agonist radioligand).
Another assay deals with BZD (central). The assay is described as follows: BZD (central) (agonist radioligand). To be noted: 10 µM.
The next assay addresses D1 (h) (Homo sapiens, UniProt P21728). The assay is described as follows: D1 (h) (antagonist radioligand). As to conditions: read-out: Inhibition D1 (h) (antagonist radioligand).
For a further assay, the target named is 5-HT transporter (h) (Homo sapiens, UniProt P31645). The assay is described as follows: 5-HT transporter (h) (antagonist radioligand). As to conditions: read-out: Inhibition 5-HT transporter (h) (antagonist radioligand).
Assay [1] deals with T1, MAO-A (h) monoamine oxydase A (Homo sapiens, UniProt P21397).
T1 sequence (P21397 1-527): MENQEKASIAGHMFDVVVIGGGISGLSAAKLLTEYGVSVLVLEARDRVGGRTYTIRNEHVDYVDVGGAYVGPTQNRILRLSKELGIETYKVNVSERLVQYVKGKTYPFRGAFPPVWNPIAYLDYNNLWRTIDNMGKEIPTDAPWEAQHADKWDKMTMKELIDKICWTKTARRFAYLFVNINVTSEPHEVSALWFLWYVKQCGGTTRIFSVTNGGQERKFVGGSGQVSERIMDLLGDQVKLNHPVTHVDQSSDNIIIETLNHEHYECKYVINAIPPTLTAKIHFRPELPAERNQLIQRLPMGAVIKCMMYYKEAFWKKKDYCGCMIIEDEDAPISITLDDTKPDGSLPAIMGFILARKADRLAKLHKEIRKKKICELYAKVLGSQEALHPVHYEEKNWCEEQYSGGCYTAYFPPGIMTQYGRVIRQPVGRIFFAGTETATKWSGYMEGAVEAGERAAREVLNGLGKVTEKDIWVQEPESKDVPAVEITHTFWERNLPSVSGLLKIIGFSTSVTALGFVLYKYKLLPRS
In words: MAO-A (h) monoamine oxydase A, enzymatic assay. To be noted: read-out: Inhibition MAO-A (h) monoamine oxydase A, enzymatic assay.

The target of a further assay is Abl kinase (h) (Homo sapiens, UniProt P00519). The assay is described as follows: Abl kinase (h). To be noted: read-out: Inhibition Abl kinase (h).
Sequence of Abl kinase (h) (P00519 whole entry, the tested form may be a part): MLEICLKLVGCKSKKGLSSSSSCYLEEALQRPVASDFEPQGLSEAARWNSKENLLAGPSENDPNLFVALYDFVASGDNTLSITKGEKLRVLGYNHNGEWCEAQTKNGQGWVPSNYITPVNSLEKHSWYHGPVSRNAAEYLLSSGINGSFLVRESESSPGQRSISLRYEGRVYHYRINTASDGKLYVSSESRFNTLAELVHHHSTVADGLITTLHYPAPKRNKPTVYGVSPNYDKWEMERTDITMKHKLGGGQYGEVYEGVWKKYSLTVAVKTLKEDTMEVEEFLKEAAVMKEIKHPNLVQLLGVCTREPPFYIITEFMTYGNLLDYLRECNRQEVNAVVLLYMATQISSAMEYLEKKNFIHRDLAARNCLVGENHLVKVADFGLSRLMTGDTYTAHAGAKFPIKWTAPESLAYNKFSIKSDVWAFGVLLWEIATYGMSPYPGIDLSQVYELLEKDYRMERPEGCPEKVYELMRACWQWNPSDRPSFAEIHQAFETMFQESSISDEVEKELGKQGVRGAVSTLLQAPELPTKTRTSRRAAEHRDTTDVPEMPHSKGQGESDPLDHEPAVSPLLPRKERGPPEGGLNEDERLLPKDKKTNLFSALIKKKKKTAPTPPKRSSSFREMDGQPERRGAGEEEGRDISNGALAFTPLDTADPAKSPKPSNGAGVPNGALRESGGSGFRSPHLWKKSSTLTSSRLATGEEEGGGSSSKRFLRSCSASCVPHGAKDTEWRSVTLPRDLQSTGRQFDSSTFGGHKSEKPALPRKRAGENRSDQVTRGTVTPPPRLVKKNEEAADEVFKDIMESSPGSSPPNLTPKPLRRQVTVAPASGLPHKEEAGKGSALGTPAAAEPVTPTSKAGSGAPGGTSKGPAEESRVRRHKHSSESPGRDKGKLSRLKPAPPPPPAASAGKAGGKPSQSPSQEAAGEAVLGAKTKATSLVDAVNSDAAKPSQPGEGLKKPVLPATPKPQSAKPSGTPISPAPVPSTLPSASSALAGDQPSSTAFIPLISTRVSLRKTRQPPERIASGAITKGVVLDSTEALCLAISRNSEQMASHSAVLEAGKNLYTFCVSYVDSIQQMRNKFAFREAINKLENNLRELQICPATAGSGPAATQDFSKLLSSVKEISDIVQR
The target of assay [2] is T2, NanoLuc luciferase MAGL fusion protein (Homo sapiens, UniProt Q99685).
T2 sequence (Q99685 1-303): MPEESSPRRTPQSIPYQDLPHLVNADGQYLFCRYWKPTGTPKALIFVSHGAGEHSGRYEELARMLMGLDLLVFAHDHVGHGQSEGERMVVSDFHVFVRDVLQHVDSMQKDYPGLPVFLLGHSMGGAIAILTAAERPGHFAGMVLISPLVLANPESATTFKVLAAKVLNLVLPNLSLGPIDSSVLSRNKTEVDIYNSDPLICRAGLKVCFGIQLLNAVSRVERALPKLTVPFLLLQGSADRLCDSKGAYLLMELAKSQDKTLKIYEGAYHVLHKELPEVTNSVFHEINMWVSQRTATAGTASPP
The assay is described as follows: Cellular MAGL NanoBRET target engagement assay in live HEK293 cells. In kind it is cell-based. The method, then:
This assay was performed as first described before.20
Compounds were profiled by a novel cellular MAGL NanoBRET™ Target Engagement assay, which measures the apparent affinity of test compounds by competitive displacement of a Roche -developed Tracer (WO2021058443, Example 2 121, or probe 4a, respectively), reversibly bound to a NanoLuc ® luciferase MAGL fusion protein in cells.
A HEK293A stable cell line expressing NanoLuc_MAGL was established at Roche and assigned as HEK293A_NanoLuc_MAGL clone #43. A fixed concentration of tracer is added to cells expressing the NanoLuc®_MAGL fusion protein to generate a BRET reporter complex. The introduction of competing compounds results in a dose -dependent decrease in NanoBRET™ energy transfer, which allows quantification of the intracellular affinity of the target protein for the test compound.
HEK293A_NanoLuc_MAGL clone #43 cells were cultured in DMEM (Gibco 31966) with 10% FBS and 800 ug/ml G418. The NanoBRET assay was performed by seeding 5000 cells/well in Costar low - volume white 384-well plate in assay buffer (1% FBS in HBSS), followed by adding the tracer (50 nM Example 21 or 100 nM 4a final concentration) and serial dilutions of test compounds. After 2 hours of incubation, Nanoluciferase substrates and extracellular inhibitors were added following the manufacturer's protocol (Promega, #N2520), and the NanoBRET signaling were quantified with the Paradigm (Molecular Devices).

For the next assay, the target named is mu (MOP) (h) (Homo sapiens, UniProt P35372). In words: mu (MOP) (h) (agonist radioligand). As to conditions: read-out: Inhibition mu (MOP) (h) (agonist radioligand).
Sequence of mu (MOP) (h) (P35372 whole entry): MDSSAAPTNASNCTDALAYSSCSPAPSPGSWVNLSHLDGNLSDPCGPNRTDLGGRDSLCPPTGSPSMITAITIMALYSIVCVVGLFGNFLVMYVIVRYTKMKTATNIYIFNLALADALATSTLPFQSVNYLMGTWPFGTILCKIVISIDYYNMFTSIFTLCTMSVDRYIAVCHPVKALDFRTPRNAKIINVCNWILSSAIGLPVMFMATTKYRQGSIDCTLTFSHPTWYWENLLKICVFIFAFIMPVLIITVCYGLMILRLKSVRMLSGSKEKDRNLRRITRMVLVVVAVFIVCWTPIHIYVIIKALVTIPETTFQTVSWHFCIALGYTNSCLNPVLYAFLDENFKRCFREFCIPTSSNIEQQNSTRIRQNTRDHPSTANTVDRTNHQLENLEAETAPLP
The target in the next assay is Estrogen ER alpha (h) (Homo sapiens, UniProt P03372). The assay is described as follows: Estrogen ER alpha (h) (agonist radioligand). To be noted: read-out: Inhibition Estrogen ER alpha (h) (agonist radioligand).
Sequence of Estrogen ER alpha (h) (P03372 whole entry): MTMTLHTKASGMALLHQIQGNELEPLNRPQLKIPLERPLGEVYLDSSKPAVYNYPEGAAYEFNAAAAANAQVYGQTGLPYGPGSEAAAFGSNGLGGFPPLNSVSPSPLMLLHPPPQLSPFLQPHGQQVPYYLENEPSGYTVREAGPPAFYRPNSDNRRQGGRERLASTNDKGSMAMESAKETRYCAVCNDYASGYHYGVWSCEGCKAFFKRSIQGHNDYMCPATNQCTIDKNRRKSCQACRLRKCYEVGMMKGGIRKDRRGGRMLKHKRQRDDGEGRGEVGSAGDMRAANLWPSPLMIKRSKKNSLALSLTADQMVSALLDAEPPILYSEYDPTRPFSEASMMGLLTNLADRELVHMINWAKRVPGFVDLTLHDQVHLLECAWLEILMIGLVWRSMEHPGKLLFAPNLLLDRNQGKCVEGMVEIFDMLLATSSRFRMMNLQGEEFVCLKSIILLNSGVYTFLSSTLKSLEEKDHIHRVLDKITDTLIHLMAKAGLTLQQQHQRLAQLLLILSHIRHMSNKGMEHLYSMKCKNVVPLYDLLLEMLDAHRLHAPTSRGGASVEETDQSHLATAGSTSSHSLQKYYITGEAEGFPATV
The target of assay [3] is norepinephrine transporter (h) (Homo sapiens, UniProt P23975). In words: norepinephrine transporter (h) (antagonist radioligand). To be noted: read-out: Inhibition norepinephrine transporter (h) (antagonist radioligand).
The subject of another assay is Cl- channel (GABA-gated). In words: Cl- channel (GABA-gated) (antagonist radioligand). To be noted: 10 µM.
The target in assay [4] is xanthine oxidase/ superoxide O2- scavenging (Bos taurus, UniProt P80457). The assay is described as follows: xanthine oxidase/ superoxide O2- scavenging. As to conditions: read-out: Inhibition xanthine oxidase/ superoxide O2- scavenging.
For a further assay, the target named is beta2 (h) (Homo sapiens, UniProt P07550). The assay is described as follows: beta2 (h) (antagonist radioligand). To be noted: read-out: Inhibition beta2 (h) (antagonist radioligand).
Sequence of beta2 (h) (P07550 whole entry): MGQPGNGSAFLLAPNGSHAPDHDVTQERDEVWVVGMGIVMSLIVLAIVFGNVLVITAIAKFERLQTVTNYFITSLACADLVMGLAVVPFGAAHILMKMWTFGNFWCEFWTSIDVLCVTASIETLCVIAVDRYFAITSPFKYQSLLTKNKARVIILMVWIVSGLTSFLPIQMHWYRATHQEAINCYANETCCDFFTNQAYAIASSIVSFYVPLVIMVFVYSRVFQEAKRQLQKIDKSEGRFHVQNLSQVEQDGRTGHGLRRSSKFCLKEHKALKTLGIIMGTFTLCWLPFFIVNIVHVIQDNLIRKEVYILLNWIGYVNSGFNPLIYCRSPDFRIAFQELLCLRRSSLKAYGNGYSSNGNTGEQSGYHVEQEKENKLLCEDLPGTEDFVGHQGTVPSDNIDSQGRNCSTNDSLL
For another assay, the target named is GSK3beta (h) (Homo sapiens, UniProt P49841). The assay is described as follows: GSK3beta (h). As to conditions: read-out: Inhibition GSK3beta (h).
Sequence of GSK3beta (h) (P49841 whole entry): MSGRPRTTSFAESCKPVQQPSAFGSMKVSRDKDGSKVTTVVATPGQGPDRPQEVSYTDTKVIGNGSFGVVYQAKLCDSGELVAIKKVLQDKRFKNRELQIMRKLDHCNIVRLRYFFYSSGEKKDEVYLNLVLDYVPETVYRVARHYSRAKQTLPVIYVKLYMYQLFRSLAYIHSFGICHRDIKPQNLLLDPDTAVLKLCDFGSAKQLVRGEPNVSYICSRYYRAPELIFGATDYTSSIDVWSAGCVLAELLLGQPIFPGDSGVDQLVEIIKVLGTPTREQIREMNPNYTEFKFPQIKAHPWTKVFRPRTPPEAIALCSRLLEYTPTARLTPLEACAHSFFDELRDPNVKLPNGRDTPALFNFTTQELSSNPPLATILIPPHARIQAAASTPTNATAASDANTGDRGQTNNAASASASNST
The next assay deals with PCP. In words: PCP (antagonist radioligand). To be noted: 10 µM.
The next assay concerns the target PDE3B (h) (Homo sapiens, UniProt Q13370). The assay is described as follows: PDE3B (h). To be noted: read-out: Inhibition PDE3B (h).
In the next assay the target is ACE (h) (Homo sapiens, UniProt P12821). In words: ACE (h). To be noted: read-out: Inhibition ACE (h).
Setting [5] is: live HEK293 cells, read-out: IC50 nanoBRET.

The results in this text go back to publication PMC11951083, “Highly Specific Miniaturized Fluorescent Monoacylglycerol Lipase Probes Enable Translational Research” (Journal of the American Chemical Society, 2025).

The structures appear in SMILES notation. Where two headings read alike, the source gives them in different places.

Sequence of D1 (h) (P21728 whole entry): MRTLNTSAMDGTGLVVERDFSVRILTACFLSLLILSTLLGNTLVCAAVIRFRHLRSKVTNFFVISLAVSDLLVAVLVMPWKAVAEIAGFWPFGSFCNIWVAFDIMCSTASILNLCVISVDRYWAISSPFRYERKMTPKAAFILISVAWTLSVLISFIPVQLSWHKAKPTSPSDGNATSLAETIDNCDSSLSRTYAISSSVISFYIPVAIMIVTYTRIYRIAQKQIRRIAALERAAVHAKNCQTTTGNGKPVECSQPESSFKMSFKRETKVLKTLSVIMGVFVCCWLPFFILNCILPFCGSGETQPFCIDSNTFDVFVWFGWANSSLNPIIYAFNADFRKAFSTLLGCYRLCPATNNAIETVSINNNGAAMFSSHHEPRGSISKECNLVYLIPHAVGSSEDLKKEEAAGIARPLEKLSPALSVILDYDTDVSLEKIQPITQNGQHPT
Sequence of PDE3B (h) (Q13370 whole entry): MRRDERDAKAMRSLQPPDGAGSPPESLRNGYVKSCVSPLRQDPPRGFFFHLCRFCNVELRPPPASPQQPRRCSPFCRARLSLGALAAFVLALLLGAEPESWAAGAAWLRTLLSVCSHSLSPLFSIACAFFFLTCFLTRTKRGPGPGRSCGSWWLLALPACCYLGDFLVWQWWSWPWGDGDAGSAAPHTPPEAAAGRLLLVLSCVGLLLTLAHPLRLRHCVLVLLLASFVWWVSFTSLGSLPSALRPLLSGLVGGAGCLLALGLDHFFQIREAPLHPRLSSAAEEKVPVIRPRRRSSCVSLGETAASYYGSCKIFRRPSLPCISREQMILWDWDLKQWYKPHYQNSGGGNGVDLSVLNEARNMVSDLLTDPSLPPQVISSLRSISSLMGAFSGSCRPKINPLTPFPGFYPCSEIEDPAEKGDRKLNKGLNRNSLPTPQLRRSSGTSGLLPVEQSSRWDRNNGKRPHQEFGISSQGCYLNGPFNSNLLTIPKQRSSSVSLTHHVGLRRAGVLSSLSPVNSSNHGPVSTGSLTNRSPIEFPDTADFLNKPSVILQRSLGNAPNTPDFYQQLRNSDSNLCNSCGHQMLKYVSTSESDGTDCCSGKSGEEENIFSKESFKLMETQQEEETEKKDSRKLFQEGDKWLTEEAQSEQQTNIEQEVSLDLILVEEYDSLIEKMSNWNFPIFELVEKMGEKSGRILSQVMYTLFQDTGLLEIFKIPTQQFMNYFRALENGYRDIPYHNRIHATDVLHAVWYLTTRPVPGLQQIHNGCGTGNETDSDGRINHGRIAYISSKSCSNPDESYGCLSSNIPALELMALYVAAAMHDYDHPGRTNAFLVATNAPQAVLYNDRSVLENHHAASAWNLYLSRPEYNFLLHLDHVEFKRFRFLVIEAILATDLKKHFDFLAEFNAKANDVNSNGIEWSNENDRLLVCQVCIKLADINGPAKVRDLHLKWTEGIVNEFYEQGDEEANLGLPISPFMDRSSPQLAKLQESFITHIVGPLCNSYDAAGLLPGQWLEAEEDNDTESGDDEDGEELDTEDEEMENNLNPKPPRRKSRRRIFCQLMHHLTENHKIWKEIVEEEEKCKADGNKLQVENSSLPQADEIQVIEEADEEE
Sequence of H3 (h) (Q9Y5N1 whole entry): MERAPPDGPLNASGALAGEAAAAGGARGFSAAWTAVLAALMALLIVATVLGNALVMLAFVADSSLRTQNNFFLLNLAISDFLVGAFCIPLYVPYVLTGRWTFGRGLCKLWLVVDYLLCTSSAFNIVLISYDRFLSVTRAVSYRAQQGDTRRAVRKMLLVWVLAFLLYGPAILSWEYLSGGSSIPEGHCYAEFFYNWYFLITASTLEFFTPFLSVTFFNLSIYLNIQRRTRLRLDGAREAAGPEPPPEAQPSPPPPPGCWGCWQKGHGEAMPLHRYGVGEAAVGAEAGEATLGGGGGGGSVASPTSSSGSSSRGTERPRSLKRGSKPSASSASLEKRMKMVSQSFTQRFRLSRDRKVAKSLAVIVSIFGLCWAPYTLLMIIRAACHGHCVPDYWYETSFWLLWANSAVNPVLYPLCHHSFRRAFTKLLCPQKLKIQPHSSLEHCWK

As for `O=C(O[C@H](CO)C(F)(F)F)N1CC2(CC(CC3=C4C=CC=[N+]4[B-](F)(F)n4cccc43)C2)C1` [Compound 1], the inhibition at 10 µM is 5.2% at H3 (h); 8.1% at D1 (h); 13% at 5-HT transporter (h); 22.6% in assay [1]; -1.9% on Abl kinase (h); 4% at mu (MOP) (h). The inhibition at 10 µM on Estrogen ER alpha (h) is 17.8%; in [3], 7.4%; in [4], -29.7%; on beta2 (h), -3.1%; on GSK3beta (h), 3.2%; at PDE3B (h), 15.9%. Also, the inhibition at 10 µM at ACE (h) is -10.4%. In addition, the “Inhibition BZD (central) (agonist radioligand)” value (shortened to “Inhibition BZD (central)”) in the assay on BZD (central) is -11,90%. Moreover, in assay [2] (setting [5]), the half-maximal inhibitory concentration (IC50) (in general, the concentration that inhibits the measured activity by half) was determined as 276 nM. In addition, in the assay on Cl- channel (GABA-gated), the “Inhibition Cl- channel (GABA-gated) (antagonist radioligand)” value (“Inhibition Cl- channel (GABA-gated)” below) is on record as 41,90%. The “Inhibition PCP (antagonist radioligand)” value with PCP was 6,90%.

Consider `O=C(N1CC2(CC(CC3=C4C=CC=[N+]4[B-](F)(F)n4cccc43)C2)C1)N1CC2(CC(n3cnc(C4CC4)n3)C2)C1` [Compound 5], for which the inhibition at 10 µM is -3.7% on H3 (h); 7.3% at D1 (h); 56.5% on 5-HT transporter (h); 4.4% in assay [1]; 25.6% at Abl kinase (h); 8.5% on mu (MOP) (h). Besides, the inhibition at 10 µM at Estrogen ER alpha (h) was 35%; in [3], 8.6%; in assay [4], -16.6%; on beta2 (h) it was 5.4%; on GSK3beta (h) it was -1.2%; on PDE3B (h) it was 10.7%. In addition, on ACE (h), the inhibition at 10 µM was -21.1%. For the same compound, the “Inhibition BZD (central)” value with BZD (central) is listed as -16,30%. For the same compound, the half-inhibitory concentration (IC50) in assay [2] came out at 85 nM. Moreover, the “Inhibition Cl- channel (GABA-gated)” value in the assay with Cl- channel (GABA-gated) is 20,90%. Further, the “Inhibition PCP (antagonist radioligand)” value in the assay with PCP is listed as -14,20%.

Regarding `O=C1CO[C@H]2CCN(C(=O)N3CC4(CC(CC5=C6C=CC=[N+]6[B-](F)(F)n6cccc65)C4)C3)C[C@H]2N1` [Compound 4], the half-maximal inhibitory concentration (IC50) in [2] (setting [5]) worked out at 196 nM.

Turning to `O=C1CO[C@H]2CCN(C(=O)N3CC4(CC(CC5=C6C=CC(c7ccc[nH]7)=[N+]6[B-](F)(F)n6cccc65)C4)C3)C[C@H]2N1` [Compound 4a], the inhibition at 10 µM on H3 (h) was 1.8%; on D1 (h), 7.5%; on 5-HT transporter (h), -9.6%; in assay [1], 4.3%; at Abl kinase (h), -53.1%; at mu (MOP) (h), 11%. For the same compound, the inhibition at 10 µM at Estrogen ER alpha (h) is -2.5%; in [3], 12.2%; in assay [4] it was 24.1%; at beta2 (h), -6.2%; at GSK3beta (h), -15%; on PDE3B (h), 13%. Also, at ACE (h), the inhibition at 10 µM was -21.2%. Moreover, the “Inhibition BZD (central)” value with BZD (central) is -4,10%. In addition, the “Inhibition Cl- channel (GABA-gated)” value in the assay with Cl- channel (GABA-gated) is 40,30%. Also, in the assay with PCP, the “Inhibition PCP (antagonist radioligand)” value is 3,60%.

As for `O=C(OC(C(F)(F)F)C(F)(F)F)N1CC2(CC(CC3=C4C=CC(c5ccc[nH]5)=[N+]4[B-](F)(F)n4cccc43)C2)C1` [Compound 2a], the inhibition at 10 µM is 7.3% on H3 (h); 6.1% at D1 (h); -12.9% on 5-HT transporter (h); -3% in assay [1]; -2.9% at Abl kinase (h); 7.6% at mu (MOP) (h). Moreover, the inhibition at 10 µM at Estrogen ER alpha (h) is -13.7%; in assay [3] it was 6.3%; in [4], 7.8%; at beta2 (h), 1.8%; at GSK3beta (h), -1.5%; at PDE3B (h) it was 12.6%. Besides, on ACE (h), the inhibition at 10 µM is -4.4%. In addition, the “Inhibition BZD (central)” value with BZD (central) is reported as 0,90%. For the same compound, in the assay on Cl- channel (GABA-gated), the “Inhibition Cl- channel (GABA-gated)” value is on record as 40,80%. Moreover, in the assay on PCP, the “Inhibition PCP (antagonist radioligand)” value is listed as -18,80%.

Regarding `O=C(OC(C(F)(F)F)C(F)(F)F)N1CC2(CC(CC3=C4C=CC=[N+]4[B-](F)(F)n4cccc43)C2)C1` [Compound 2], the inhibition at 10 µM on H3 (h) is -7.2%; at D1 (h), -1.2%; on 5-HT transporter (h), -4.8%; in assay [1], -1.3%; on Abl kinase (h), -10.5%; at mu (MOP) (h) it was -0.4%. In addition, the inhibition at 10 µM at Estrogen ER alpha (h) is -0.8%; in [3] it was -0.5%; in [4] it was 1.8%; on beta2 (h) it was -0.6%; on GSK3beta (h) it was -1.7%; on PDE3B (h), 6.3%. Further, the inhibition at 10 µM on ACE (h) is -15.8%. Further, the “Inhibition BZD (central)” value in the assay with BZD (central) was -27,70%. In addition, the concentration for half-maximal inhibition (IC50) in [2] (setting [5]) turned out to be 720 nM. Also, the “Inhibition Cl- channel (GABA-gated)” value in the assay on Cl- channel (GABA-gated) was 51,90%. In the assay with PCP, the “Inhibition PCP (antagonist radioligand)” value is reported as -5,50%.
